Three compounds from US20230381117A1, “ANTI-OBESITY POTENTIAL OF BISDEMETHOXYCURCUMIN COMPOSITIONS” (SAMI-SABINSA GROUP LIMITED, priority 2020, published 2023) can be followed below.

Series [1] has as its system high fat diet induced obesity in C57 mice. The series can be described thus: High fat diet induced obesity in C57 mice. The format is in vivo, C57/BL6 mice. To be noted: high fat diet fed mice, 50 mg/kgbw; FIG. 6. On the procedure:
Animals-C57/BL6 mice, 6-8 weeks of age and 8 animals/Group (4 Male and 4 Female) were used for the study. […] The temperature and relative humidity was recorded once daily. Feed: […] Water was provided along with High Fat Diet to the animals throughout the acclimatization and experimental period. Water from water filter cum purifier was provided in animal feeding bottle with stainless steel sipper tubes. The design of the study groups is depicted in table 4. [table] Body weight of the animals was recorded in all the days of experimental period. At the end of the experimental period, the animals were sacrificed by cervical dislocation. Blood was collected and Serum was separated by centrifugation and used for the analysis of biochemical parameters. […] The following parameters were measured in the above groups: • Measurement of Body weight: Determination of Organ Weight13 Liver, Visceral adipose tissue (VAT) and subcutaneous adipose tissue (SAT) • Estimation of Cholesterol (Zak et al., (2009) A new method for the determination of serum cholesterol. J Clin Endocrinol Metab., 94(7), 2215-2220) • Estimation of Triglycerides (Foster L. B and Dunn R. T. (1973) Stable reagents for determination of serum triglycerides by a colorimetric Hantzsch condensation method. Clin Chem, 196, 338-340). • Estimation of HDL Cholesterol (Burstein et al., (1970). Determination of HDL cholesterol. […]

Series [2] concerns Mouse 3T3-L1 pre-adipocytes. As to the kind of experiment: Adipogenesis inhibition, lipid accumulation by Oil red O staining in cultured 3T3L1. The format is cell-based. The method, then:
Stock was diluted 1000 times in DMEM to get 10 μg/ml final concentration and serially diluted. Insulin (Hi Media) was bought as a solution at a concentration of 20 mg/ml. This was diluted to 1 μg/ml in DMEM. IBMX (Sigma)—Stock of 5 mM was prepared in DMEM, and diluted 10 times to be used at a final concentration of 0.5 mM. Dexamethasone (Sigma)—A stock of 10 μM was prepared in DMEM and diluted 40 times to get a final concentration of 0.25 μM. Mouse 3T3-L1 pre-adipocytes were cultured in DMEM media containing 25 mM glucose, 10% heat-inactivated new born calf serum (NBCS) and antibiotics at 37° C. and 5% CO2. When the cells were 70-80% confluent, they were trypsinized, washed and seeded in 48 well plates at a density of 3×10^4 cells per well. […] After differentiation for two days, The media was replaced with DMEM containing insulin (1 μg/mL) and different concentrations of test ingredients on alternate days until the cells were processed after 3rd progression. Untreated cells grown in differentiation media and undifferentiated cells grown in NBCS media were taken as adipogenesis positive and negative controls for the experiment. Quantification of triglycerides accumulated in adipocytes was done by Oil red O staining.

The mark [3] stands for this setting: Table 2B, 1.5625 μg/ml, 3T3-L1, Oil red O, read-out: Adipogenesis inhibition.
Where [4] appears, read: Table 2B, 3.125 μg/ml, 3T3-L1, Oil red O, read-out: Adipogenesis inhibition.
Where [5] appears, read: 3T3-L1, read-out: Adipogenesis inhibition.

Where two headings read alike, the source gives them in different places.

Take `O=C(/C=C/c1ccc(O)cc1)CC(=O)/C=C/c1ccc(O)cc1` [BDMC, bisdemethoxycurcumin]: the “Adverse effect on weight of the liver / critical organs” value in series [1] is “does not induce any adverse effects”. The inhibition at 1.5625 µg/mL in series [2] (setting [3]) is 20.2%. The inhibition at 3.125 µg/mL in series [2] (setting [4]) stood at 16.2%.
With `COc1cc(/C=C/C(=O)CC(=O)/C=C/c2ccc(O)c(OC)c2)ccc1O` [Curcumin, curcumin], the inhibition at 1.5625 µg/mL in series [2] (setting [3]) came out at 11.6%. The inhibition at 3.125 µg/mL in series [2] (setting [4]) came out at 11.1%.
For the compound `COc1cc(/C=C/C(O)=C/C(=O)/C=C/c2ccc(O)cc2)ccc1O` [DMC, demethoxycurcumin], in series [2] (setting [5]), the inhibition at 1.5625 µg/mL came out at 21% and the inhibition at 3.125 µg/mL came to 19.4%.
